This note sets out measurements from patent publication US8293705B2, “HCV protease inhibitors and uses thereof” (Avila Therapeutics, Inc., priority 2007, dated 2012).

The target of one assay is T1, HCV NS3/4A wild type (Hepatitis C virus genotype 1b, UniProt Q9WMX2).
T1 construct: HCV NS3/4A wild type (wt) was incubated for 1 hr at a 10× fold access of test compound to protein; purchased Bioenza, Calif
Briefly: Mass spectrometric analysis of covalent modification (MALDI-TOF). The following applies: 10× excess of test compound to protein; for Covalent modification of HCV NS3/4A wild type: MALDI-TOF. It is filed as binding. Here is the method: Mass spectrometric analysis of HCV wild type or HCV variant C159S in the presence of test compound is performed. 100 pmols of HCV wild type (Bioenza, Calif.) is incubated with test compound for 1 hr and 3 hrs at 10-fold access of test compound to protein. 1 ul aliquots of the samples (total volume of 4.24 ul) are diluted with 10 ul of 0.1% TFA prior to micro C4 ZipTipping directly onto the MALDI target using Sinapinic acid as the desorption matrix (10 mg/mL in 0.1% TFA:Acetonitrile 50:50). Analyses are performed on a Shimadzu Biotech Axima TOF2 (Shimadzu Instruments) matrix-assisted-laser desorption/ionization Time-of-Flight (MALDI-TOF) mass spectrometer. The same procedure is carried out on 100 pmols of HCV C159S mutant of HCV protease for 3 hrs at 10-fold excess of test compound to protein.
As depicted in FIGS. 1 and 2, mass spectrometric analysis of HCV wild type in the presence of test compounds I-1 and I-25 was performed using the following protocol: HCV NS3/4A wild type (wt) was incubated for 1 hr at a 10× fold access of test compound to protein. 2 ul aliquots of the samples were diluted with 10 ul of 0.1% TFA prior to micro C4 ZipTipping directly onto the MALDI target using Sinapinic acid as the desorption matrix (10 mg/ml in 0.1% TFA:Acetonitrile 50:50). For intact protein mass measurement the instrument was set in linear mode using a pulsed extraction setting of 24,500 and apomyoglobin as the standard to calibrate the instrument.

Assay [1] relates to HCV RNA replicon in cell line ET (luc-ubi-neo/ET), human Huh7 hepatoma. Kind of assay: HCV RNA replicon assay, Example 14 Method A. It is filed as cell-based. Conditions: Hepatitis C virus, Huh-7, assay of Example 14, 72 hr; for IC50: read-out: Inhibition, Replicon (IC50); for IC90: read-out: Inhibition, Replicon, IC90 value. As to the method: The compounds were assayed to evaluate the antiviral activity and cytotoxicity of compounds in vitro using HCV RNA replicons. This assay used the cell line ET (luc-ubi-neo/ET), which is a human Huh7 hepatoma cell line that contains an HCV RNA replicon with a stable luciferase (Luc) reporter and three cell culture-adaptive mutations. […]
The ET cell line was grown in Dulbecco's modified essential media (DMEM), 10% fetal bovine serum (FBS), 1% penicillin-streptomycin (pen-strep), 1% glutamine, 250 μg/mL G418 in a 5% CO2 incubator at 37° C. All cell culture reagents were obtained from Mediatech (Manassas, Va.). Cells were trypsinized (1% trypsin:EDTA) and plated out at 5×10^3 cells/well in white 96-well assay plates (Costar) dedicated to cell number (cytotoxicity) or antiviral activity assessments. Drugs were added at six 3-fold concentrations each and the assay was run in DMEM, 5% FBS, 1% pen-strep, 1% glutamine. Human interferon alpha-2b (PBL Biolabs, New Brunswick, N.J.) was included in each run as a positive control compound. Cells were processed 72 hr post drug addition when the cells are still subconfluent. Antiviral activity was measured by analyzing replicon-derived luciferase activity using the Steady-Glo Luciferase Assay System (Promega, Madison, Wis.) according to manufacturer's instruction. The number of cells in each well was determined by CytoTox-1 reagent (Promega). Compound profile was derived by calculating applicable EC50 (effective concentration inhibiting virus replication by 50%), EC90 (effective concentration inhibiting virus replication by 90%), IC50 (concentration decreasing cell viability by 50%) and SI50 (selective index: […]) values.

Assay [2] has as its target T2, HCV NS3/4A 1b protease D168A (Hepatitis C virus genotype 1b, UniProt Q9WMX2, D1194A).
T2 construct: 10× stocks of NS3/4A protease enzyme from Bioenza (Mountain View, Calif.); purchased Bioenza (Mountain View, Calif.)
Kind of assay: HCV protease FRET assay (IC50_APP), Example 16. The class given is biochemical.

For assay [3], the target named is T3, HCV NS3/4A 1b protease wild type (Hepatitis C virus genotype 1b, UniProt Q9WMX2).
T3 construct: 10× stocks of NS3/4A protease enzyme from Bioenza (Mountain View, Calif.); purchased Bioenza (Mountain View, Calif.)
Kind of assay: HCV protease FRET assay (IC50_APP), Example 16. The class given is biochemical.

Assay [4] concerns the target T4, HCV NS3/4A 1b protease A156T (Hepatitis C virus genotype 1b, UniProt Q9WMX2, A1182T).
T4 construct: 10× stocks of NS3/4A protease enzyme from Bioenza (Mountain View, Calif.); purchased Bioenza (Mountain View, Calif.)
Briefly: HCV protease FRET assay (IC50_APP), Example 16. It is filed as biochemical.

Assay [5] addresses T2, HCV NS3/4A 1b protease D168A. Briefly: HCV protease FRET assay (IC50), Example 15. It is filed as biochemical. Conditions: Inhibition (IC50), HCV D168A, FRET, 30 min pre-incubation at 25° C. Here is the method: (§1) The following protocol was used to generate IC50 values as depicted for compound 239 in Table 4, above. The protocol is a modified FRET-based assay (v—02) from In Vitro Resistance Studies of HCV Serine Protease Inhibitors, 2004, JBC, vol. 279, No. 17, pp 17508-17514.
(§2) 10× stocks of NS3/4A protease enzyme from Bioenza (Mountain View, Calif.) and 1.13× 5-FAM/QXL™520 FRET peptide substrate from Anaspec (San Jose, Calif.) were prepared in 50 mM HEPES, pH 7.8, 100 mM NaCl, 5 mM DTT and 20% glycerol. 5 μL of each enzyme were pre-incubated in a Corning (#3573) 384-well, black, non-treated microtiter plate (Corning, N.Y.) for 30 min at 25° C. with a 0.5 μL volume of 50% DMSO and serially diluted compounds prepared in 50% DMSO. Protease reactions were started with the addition of 45 μL of the FRET substrate and monitored for 120 minutes at λex487/λem514 through Quad^4 monochromoters in a Synergy^4 plate reader from BioTek (Winooski, Vt.). At the conclusion of each assay, progress curves from each well were examined for linear reaction kinetics and fit statistics (R^2, absolute sum of squares). Initial velocity (0 minutes to 30+ minutes) from each reaction was determined from the slope of a plot of relative fluorescence units vs time (minutes) and then plotted against inhibitor concentration to estimate IC50 from log [Inhibitor] vs Response, Variable Slope model in GraphPad Prism from GraphPad Software (San Diego, Calif.).
(§3) The compound numbers correspond to the compound numbers in Table 3. […] ;

Assay [6] addresses T3, HCV NS3/4A 1b protease wild type. Kind of assay: HCV protease FRET assay (IC50), Example 15. The class given is biochemical. Here is the method:
as §1, §2, §3

The target in assay [7] is T4, HCV NS3/4A 1b protease A156T. Briefly: HCV protease FRET assay (IC50), Example 15. The class given is biochemical. The following applies: Inhibition (IC50), HCV A156T, FRET, 30 min pre-incubation at 25° C. Here is the method: as §1, §2, §3
The target of another assay is HCV NS3/4A D168A (Hepatitis C virus genotype 1b, UniProt Q9WMX2, D1194A). Kind of assay: Mass spectrometric analysis of covalent modification. It is filed as binding. The following applies: methods described in Example 18. Here is the method:
HCV is incubated with test compound for 3 hrs prior to tryptic digestion. Todoacetamide is used as the alkylating agent after compound incubation. For tryptic digests a 2 ul aliquot (0.06 ug/ul) is diluted with 10 ul of 0.1% TFA prior to micro C18 Zip Tipping directly onto the MALDI target using alpha cyano-4-hydroxy cinnamic acid as the matrix (5 mg/mL in 0.1% TFA:Acetonitrile 50:50).
For tryptic digests the instrument is set in Reflectron mode with a pulsed extraction setting of 1800. Calibration is done using the Laser Biolabs Pep Mix standard (1046.54, 1296.69, 1672.92, 2093.09, 2465.20). For CID/PSD analysis the peptide is selected using cursors to set ion gate timing and fragmentation occurred at a laser power about 20% higher and He is used as the collision gas for CID. Calibration for fragments is done using the P14R fragmentation calibration for the Curved field Reflectron.
As depicted in FIGS. 4, 5, 6, and 7, mass spectrometric analysis of HCV mutants in the presence of compound I-11 was performed. […] 2 ul aliquots of the samples were diluted with 10 ul of 0.1% TFA prior to micro C4 ZipTipping directly onto the MALDI target using Sinapinic acid as the desorption matrix (10 mg/ml in 0.1% TFA:Acetonitrile 50:50). […]

For assay [8], the target named is T5, HCV NS3/4A 1b protease R155K (Hepatitis C virus genotype 1b, UniProt Q9WMX2, R1181K).
T5 construct: 10× stocks of NS3/4A protease enzyme from Bioenza (Mountain View, Calif.); purchased Bioenza (Mountain View, Calif.)
Kind of assay: HCV protease FRET assay (IC50_APP), Example 16. The class given is biochemical. The following applies: reaction started immediately after enzyme addition, read-out: Inhibition (apparent IC50, IC50_APP), HCV R155K.

A value given as a limit tells only on which side of the number the result lay.

The term IC50 denotes the concentration that inhibits the measured activity by half. By IC90 is commonly meant the point of the concentration-response curve where the effect stands at 90%. As to `C=CC(=O)NCC(=O)N1C[C@H](OC(=O)N2Cc3cccc(F)c3C2)C[C@H]1C(=O)N[C@]1(C(=O)NS(=O)(=O)C2CC2)C[C@H]1C=C` [Compound I-6, (3R,5S)-1-(2-acrylamidoacetyl)-5-((1R,2S)-1-(cyclopropylsulfonylcarbamoyl)-2-vinylcyclopropylcarbamoyl)pyrrolidin-3-yl 4-fluoroisoindoline-2-carboxylate], the “Covalent modification of HCV NS3/4A wild type” value at HCV NS3/4A wild type was “measurable covalent modification”. Besides, the concentration for half-maximal inhibition (IC50) is 100 to 1000 nM in assay [1]; 100 to 1000 nM in assay [2]; less than 10 nM in assay [3]; less than 10 nM in [4]; 10 to 100 nM in assay [5]; less than 10 nM in assay [6]. Further, the IC50 in assay [7] was less than 10 nM. In assay [1], the IC90 was in the range of 1000 to 10000 nM.

Regarding `C=C[C@@H]1C[C@]1(NC(=O)[C@@H]1C[C@@H](OC(=O)N2Cc3cccc(F)c3C2)CN1C(=O)CNC(=O)/C=C/C)C(=O)NS(=O)(=O)C1CC1` [Compound I-7, (3R,5S)-1-(2-(E)-but-2-enamidoacetyl)-5-((1R,2S)-1-(cyclopropylsulfonylcarbamoyl)-2-vinylcyclopropylcarbamoyl)pyrrolidin-3-yl-4-fluoroisoindoline-2-carboxylate], the IC50 in assay [2] was 1000 to 10000 nM; in assay [3], 100 to 1000 nM; in assay [4], 100 to 1000 nM; in assay [5], 1000 to 10000 nM; in assay [6], 10 to 100 nM.

In the case of `C=CC(=O)NC[C@H](NC(=O)OC1CCCC1)C(=O)N1C[C@H](OC(=O)N2Cc3cccc(F)c3C2)C[C@H]1C(=O)N[C@]1(C(=O)NS(=O)(=O)C2CC2)C[C@H]1C=C` [Compound I-19, (3R,5S)-1-((S)-3-acrylamido-2-(cyclopentyloxycarbonylamino)propanoyl)-5-((1R,2S)-1-(cyclopropylsulfonylcarbamoyl)-2-vinylcyclopropylcarbamoyl)pyrrolidin-3-yl 4-fluoroisoindoline-2-carboxylate], the “Covalent modification of HCV NS3/4A wild type” value at HCV NS3/4A wild type is listed as “measurable covalent modification”. For the same compound, the half-inhibitory concentration (IC50) is 10 to 100 nM in assay [2], less than 10 nM in assay [3] and less than 10 nM in assay [4]. In addition, on HCV NS3/4A D168A, the “Covalent modification of HCV NS3/4A D168A” value was “measurable covalent modification”.

Consider `C=CC(=O)O[C@H](C)[C@H](NC(=O)OC(C)(C)C)C(=O)N1C[C@H](OC(=O)N2Cc3cccc(F)c3C2)C[C@H]1C(=O)N[C@]1(C(=O)NS(=O)(=O)C2CC2)C[C@H]1C=C` [Compound I-24, (3R,5S)-1-((2S,3R)-3-(acryloyloxy)-2-(tert-butoxycarbonylamino)butanoyl)-5-((1R,2S)-1-(cyclopropylsulfonylcarbamoyl)-2-vinylcyclopropylcarbamoyl)pyrrolidin-3-yl 4-fluoroisoindoline-2-carboxylate], for which, at HCV NS3/4A wild type, the “Covalent modification of HCV NS3/4A wild type” value is given as “measurable covalent modification”. The IC50 in assay [1] was 10 to 100 nM; in assay [2] it was less than 10 nM; in assay [3] it was less than 10 nM; in [4] it was less than 10 nM. Also, in assay [1], the 90% effect concentration (IC90) was 100 to 1000 nM. In addition, the “Covalent modification of HCV NS3/4A D168A” value on HCV NS3/4A D168A was “measurable covalent modification”.

In the case of `C=C[C@@H]1C[C@]1(NC(=O)[C@@H]1C[C@@H](OC(=O)N2Cc3cccc(F)c3C2)CN1C(=O)[C@H](CCC(=O)C=C(C)C)NC(=O)OC(C)(C)C)C(=O)NS(=O)(=O)C1CC1` [Compound I-25, (3R,5S)-1-((S)-2-(tert-butoxycarbonylamino)-7-methyl-5-oxooct-6-enoyl)-5-((1R,2S)-4-(cyclopropylsulfonylcarbamoyl)-2-vinylcyclopropylcarbamoyl)pyrrolidin-3-yl 4-fluoroisoindoline-2-carboxylate], the “Covalent modification of HCV NS3/4A wild type” value on HCV NS3/4A wild type is on record as “conversion to a new peak”. Besides, the “Mass increase of new protein species vs protein with no compound” value at HCV NS3/4A wild type (1 hr) is 773 Da. Further, the IC50 is less than 10 nM in assay [1]; 10 to 100 nM in assay [8]; 100 to 1000 nM in [2]; less than 10 nM in [3]; 10 to 100 nM in [4]. Besides, in assay [1], the IC90 is 10 to 100 nM.
